Experimental data from ChEMBL document CHEMBL1275261, “Nationwide investigation of extended-spectrum beta-lactamases, metallo-beta-lactamases, and extended-spectrum oxacillinases produced by ceftazidime-resistant Pseudomonas aeruginosa strains in France” (2010).
Converted amounts (≈) assume the structure as drawn.

Tests used:
Assay type in all cases: functional
Pseudomonas aeruginosa [1] = assay: Antibacterial activity against SHV-2a producing Pseudomonas aeruginosa isolate P102 exhibiting PFGE H pattern by 2-fold agar dilution method
Pseudomonas aeruginosa [2] = assay: Antibacterial activity against SHV-2a producing Pseudomonas aeruginosa isolate P60 exhibiting PFGE H pattern by 2-fold agar dilution method
Pseudomonas aeruginosa [3] = assay: Antibacterial activity against PER-1 producing Pseudomonas aeruginosa isolate P170 exhibiting PFGE G pattern by 2-fold agar dilution method
Pseudomonas aeruginosa [4] = assay: Antibacterial activity against OXA-10, PSE-1, VIM-2 and PER-1 producing Pseudomonas aeruginosa isolate P22 exhibiting PFGE F pattern by 2-fold agar dilution method
Pseudomonas aeruginosa [5] = assay: Antibacterial activity against OXA-30, PSE-1, VIM-2 and PER-1 producing Pseudomonas aeruginosa isolate P19 exhibiting PFGE F pattern by 2-fold agar dilution method
Pseudomonas aeruginosa [6] = assay: Antibacterial activity against OXA-28 producing Pseudomonas aeruginosa isolate P174 exhibiting PFGE E pattern by 2-fold agar dilution method
Pseudomonas aeruginosa [7] = assay: Antibacterial activity against OXA-2 and OXA-19 producing Pseudomonas aeruginosa isolate P66 exhibiting PFGE C pattern by 2-fold agar dilution method
Pseudomonas aeruginosa [8] = assay: Antibacterial activity against OXA-19 producing Pseudomonas aeruginosa isolate P9 exhibiting PFGE A pattern by 2-fold agar dilution method
Pseudomonas aeruginosa [9] = assay: Antibacterial activity against IMP-18 producing Pseudomonas aeruginosa isolate P85 exhibiting PFGE K pattern by 2-fold agar dilution method
Pseudomonas aeruginosa [10] = assay: Antibacterial activity against VIM-2 producing Pseudomonas aeruginosa isolate P67 exhibiting PFGE J pattern by 2-fold agar dilution method
Pseudomonas aeruginosa [11] = assay: Antibacterial activity against VEB-1a and OXA-10 producing Pseudomonas aeruginosa isolate P151 exhibiting PFGE I pattern by 2-fold agar dilution method
Pseudomonas aeruginosa [12] = assay: Antibacterial activity against OXA-19 producing Pseudomonas aeruginosa isolate P122 exhibiting PFGE A pattern by 2-fold agar dilution method
Pseudomonas aeruginosa [13] = assay: Antibacterial activity against OXA-19 producing Pseudomonas aeruginosa isolate P11 exhibiting PFGE A pattern by 2-fold agar dilution method
Pseudomonas aeruginosa [14] = assay: Antibacterial activity against SHV-2a producing Pseudomonas aeruginosa isolate P102 exhibiting PFGE H pattern by 2-fold agar dilution method in presence of 4 ug/ml Tazobactam
Pseudomonas aeruginosa [15] = assay: Antibacterial activity against VEB-1a and OXA-10 producing Pseudomonas aeruginosa isolate P151 exhibiting PFGE I pattern by 2-fold agar dilution method in presence of 4 ug/ml Tazobactam
Pseudomonas aeruginosa [16] = assay: Antibacterial activity against VIM-2 producing Pseudomonas aeruginosa isolate P67 exhibiting PFGE J pattern by 2-fold agar dilution method in presence of 4 ug/ml Tazobactam
Pseudomonas aeruginosa [17] = assay: Antibacterial activity against IMP-18 producing Pseudomonas aeruginosa isolate P85 exhibiting PFGE K pattern by 2-fold agar dilution method in presence of 4 ug/ml Tazobactam
Pseudomonas aeruginosa [18] = assay: Antibacterial activity against SHV-2a producing Pseudomonas aeruginosa isolate P60 exhibiting PFGE H pattern by 2-fold agar dilution method in presence of 4 ug/ml Tazobactam
Pseudomonas aeruginosa [19] = assay: Antibacterial activity against PER-1 producing Pseudomonas aeruginosa isolate P170 exhibiting PFGE G pattern by 2-fold agar dilution method in presence of 4 ug/ml Tazobactam
Pseudomonas aeruginosa [20] = assay: Antibacterial activity against OXA-10, PSE-1, VIM-2 and PER-1 producing Pseudomonas aeruginosa isolate P22 exhibiting PFGE F pattern by 2-fold agar dilution method in presence of 4 ug/ml Tazobactam
Pseudomonas aeruginosa [21] = assay: Antibacterial activity against OXA-30, PSE-1, VIM-2 and PER-1 producing Pseudomonas aeruginosa isolate P19 exhibiting PFGE F pattern by 2-fold agar dilution method in presence of 4 ug/ml Tazobactam
Pseudomonas aeruginosa [22] = assay: Antibacterial activity against OXA-28 producing Pseudomonas aeruginosa isolate P174 exhibiting PFGE E pattern by 2-fold agar dilution method in presence of 4 ug/ml Tazobactam
Pseudomonas aeruginosa [23] = assay: Antibacterial activity against OXA-2 and OXA-19 producing Pseudomonas aeruginosa isolate P66 exhibiting PFGE C pattern by 2-fold agar dilution method in presence of 4 ug/ml Tazobactam
Pseudomonas aeruginosa [24] = assay: Antibacterial activity against OXA-19 producing Pseudomonas aeruginosa isolate P122 exhibiting PFGE A pattern by 2-fold agar dilution method in presence of 4 ug/ml Tazobactam
Pseudomonas aeruginosa [25] = assay: Antibacterial activity against OXA-19 producing Pseudomonas aeruginosa isolate P11 exhibiting PFGE A pattern by 2-fold agar dilution method in presence of 4 ug/ml Tazobactam
Pseudomonas aeruginosa [26] = assay: Antibacterial activity against OXA-19 producing Pseudomonas aeruginosa isolate P9 exhibiting PFGE A pattern by 2-fold agar dilution method in presence of 4 ug/ml Tazobactam

Structure (SMILES) | MIC (Pseudomonas aeruginosa [1]) [µg/mL] | MIC (Pseudomonas aeruginosa [2]) [µg/mL] | MIC (Pseudomonas aeruginosa [3]) [µg/mL] | MIC (Pseudomonas aeruginosa [4]) [µg/mL] | MIC (Pseudomonas aeruginosa [5]) [µg/mL] | MIC (Pseudomonas aeruginosa [6]) [µg/mL] | MIC (Pseudomonas aeruginosa [7]) [µg/mL] | MIC (Pseudomonas aeruginosa [8]) [µg/mL] | MIC (Pseudomonas aeruginosa [9]) [µg/mL] | MIC (Pseudomonas aeruginosa [10]) [µg/mL] | MIC (Pseudomonas aeruginosa [11]) [µg/mL] | MIC (Pseudomonas aeruginosa [12]) [µg/mL] | MIC (Pseudomonas aeruginosa [13]) [µg/mL] | other results
CO/N=C(\C(=O)N[C@@H]1C(=O)N2C(C(=O)[O-])=C(C[N+]3(C)CCCC3)CS[C@H]12)c1csc(N)n1 | 64 (≈ 133 µM) | 64 (≈ 133 µM) | 64 (≈ 133 µM) | 128 (≈ 266 µM) | 128 (≈ 266 µM) | 32 (≈ 66.6 µM) | 16 (≈ 33.3 µM) | 64 (≈ 133 µM) | 256 (≈ 533 µM) | 64 (≈ 133 µM) | > 512 | – | – | –
NCC[C@H](O)C(=O)N[C@@H]1C[C@H](N)[C@@H](O[C@H]2O[C@H](CN)[C@@H](O)[C@H](O)[C@H]2O)[C@H](O)[C@H]1O[C@H]1O[C@H](CO)[C@@H](O)[C@H](N)[C@H]1O [AMIKACIN] | 128 (≈ 219 µM) | 32 (≈ 54.6 µM) | 32 (≈ 54.6 µM) | 64 (≈ 109 µM) | 64 (≈ 109 µM) | 16 (≈ 27.3 µM) | 128 (≈ 219 µM) | 16 (≈ 27.3 µM) | > 512 | 32 (≈ 54.6 µM) | 128 (≈ 219 µM) | 8 (≈ 13.7 µM) | 8 (≈ 13.7 µM) | –
C[C@H]1[C@H](NC(=O)/C(=N\OC(C)(C)C(=O)O)c2csc(N)n2)C(=O)N1S(=O)(=O)O [AZTREONAM] | 32 (≈ 73.5 µM) | 32 (≈ 73.5 µM) | 128 (≈ 294 µM) | 256 (≈ 588 µM) | 128 (≈ 294 µM) | 32 (≈ 73.5 µM) | 16 (≈ 36.7 µM) | 16 (≈ 36.7 µM) | 16 (≈ 36.7 µM) | 32 (≈ 73.5 µM) | > 512 | – | – | –
CC(C)(O/N=C(\C(=O)N[C@@H]1C(=O)N2C(C(=O)[O-])=C(C[n+]3ccccc3)CS[C@H]12)c1csc(N)n1)C(=O)O [CEFTAZIDIME] | 64 (≈ 117 µM) | 64 (≈ 117 µM) | 256 (≈ 468 µM) | 256 (≈ 468 µM) | 256 (≈ 468 µM) | 256 (≈ 468 µM) | 64 (≈ 117 µM) | 256 (≈ 468 µM) | > 512 | 128 (≈ 234 µM) | > 512 | 256 (≈ 468 µM) | 256 (≈ 468 µM) | –
O=C(O)c1cn(C2CC2)c2cc(N3CCNCC3)c(F)cc2c1=O [CIPROFLOXACIN] | 32 (≈ 96.6 µM) | 32 (≈ 96.6 µM) | 64 (≈ 193 µM) | – | – | 128 (≈ 386 µM) | 128 (≈ 386 µM) | 64 (≈ 193 µM) | 128 (≈ 386 µM) | 128 (≈ 386 µM) | 512 (≈ 1550 µM) | 64 (≈ 193 µM) | 32 (≈ 96.6 µM) | –
C[C@@H](O)[C@H]1C(=O)N2C(C(=O)O)=C(SCCNC=N)C[C@H]12 [IMIPENEM ANHYDROUS] | 16 (≈ 53.4 µM) | 1 (≈ 3.34 µM) | 4 (≈ 13.4 µM) | 128 (≈ 428 µM) | 128 (≈ 428 µM) | 4 (≈ 13.4 µM) | 1 (≈ 3.34 µM) | 16 (≈ 53.4 µM) | 64 (≈ 214 µM) | 512 (≈ 1710 µM) | 32 (≈ 107 µM) | 8 (≈ 26.7 µM) | 8 (≈ 26.7 µM) | –
CCN1CCN(C(=O)N[C@@H](C(=O)N[C@@H]2C(=O)N3[C@@H]2SC(C)(C)[C@@H]3C(=O)O)c2ccccc2)C(=O)C1=O [PIPERACILLIN] | – | – | – | – | – | – | – | – | – | – | – | – | – | MIC (Pseudomonas aeruginosa [14]): 128 µg/mL; MIC (Pseudomonas aeruginosa [15]): 256 µg/mL; MIC (Pseudomonas aeruginosa [16]): 32 µg/mL; MIC (Pseudomonas aeruginosa [17]): 128 µg/mL; MIC (Pseudomonas aeruginosa [18]): 128 µg/mL; MIC (Pseudomonas aeruginosa [19]): 128 µg/mL; MIC (Pseudomonas aeruginosa [20]): 256 µg/mL; MIC (Pseudomonas aeruginosa [21]): 256 µg/mL; MIC (Pseudomonas aeruginosa [22]): 128 µg/mL; MIC (Pseudomonas aeruginosa [23]): 32 µg/mL; MIC (Pseudomonas aeruginosa [24]): 64 µg/mL; MIC (Pseudomonas aeruginosa [25]): 64 µg/mL; MIC (Pseudomonas aeruginosa [26]): 128 µg/mL
CC1(C)S[C@@H]2[C@H](NC(=O)[C@H](C(=O)O)c3ccsc3)C(=O)N2[C@H]1C(=O)O [TICARCILLIN] | > 512 | > 512 | 512 (≈ 1330 µM) | > 512 | > 512 | 128 (≈ 333 µM) | 512 (≈ 1330 µM) | 512 (≈ 1330 µM) | > 512 | > 512 | > 512 | 256 (≈ 666 µM) | 256 (≈ 666 µM) | –
